Measured values from publication PMC4685012 (Bioorganic & medicinal chemistry, 2015).
pIC50: −log10 of the molar value.

Tests used:
[1] = tested on: A549 cells; test: Cell viability; assay type: cell-based; conditions: for Antiproliferative activity against A549, in words: A549 cells; for pIC50: Homo sapiens, A549, 72 h, read-out: Anti-proliferative activity IC50, A549
[2] = tested on: MCF-7 cells; test: Cell viability; assay type: cell-based; conditions: for pIC50: Homo sapiens, MCF7, 72 h, read-out: Anti-proliferative activity IC50, MCF-7; for Antiproliferative activity against MCF-7, in words: MCF-7 cells

SMILES | Antiproliferative activity against A549, in words [1] | pIC50 [1] | pIC50 [2] | Antiproliferative activity against MCF-7, in words [2]
CC[C@H]1OC(=O)[C@@H](C)[C@H](O[C@H]2C[C@@](C)(OC)[C@](O)(CN(C)Cc3ccc(-c4cn(CCCCCCC(=O)NO)nn4)cc3)[C@H](C)O2)[C@H](C)[C@H](O[C@H]2O[C@@H](C)C[C@@H](N(C)C)[C@@H]2O)[C@@](C)(O)C[C@H](C)CN(C)[C@@H](C)[C@H](O)[C@@]1(C)O [Compound 39f, (Azithromycin-4′′-(methylamino)-N(methyl)(4-benzyltriazolyl))-N-hydroxyheptanamide] | non-cytotoxic | < 4.70 | < 4.70 | non-cytotoxic
CC[C@H]1OC(=O)[C@H](C)C(=O)[C@H](C)[C@@H](O[C@@H]2O[C@H](C)C[C@H](N(C)Cc3ccccc3-c3cn(CCCCCCC(=O)NO)nn3)[C@H]2O)[C@@](C)(OC)C[C@@H](C)C2=NCCN3C(=O)O[C@@]1(C)[C@H]3[C@H]2C [Compound 24b, (Tricyclic Ketolide-3′-(N-(2-triazolylbenzyl)))-N-hydroxyheptanamide] | devoid of antiproliferative activities | < 4.70 | < 4.70 | devoid of antiproliferative activities
CC[C@@H]1OC(=O)[C@@H](C)[C@H](O[C@@H]2C[C@](C)(OC)[C@@](O)(CN(C)C)[C@@H](C)O2)[C@H](C)[C@H](O[C@@H]2O[C@H](C)C[C@H](N(C)Cc3ccc(-c4cn(CCCCCCC(=O)NO)nn4)cc3)[C@H]2O)[C@@](C)(OC)C[C@H](C)C(=O)[C@@H](C)[C@@H](O)[C@@]1(C)O [Compound 49b, (Clarithromycin-(4′-N-(4-benzyltriazolyl))-4′′-(N,N-dimethylaminomethyl))-N-hydroxyheptanamide] | potently inhibited | – | – | potently inhibited
CC[C@@H]1OC(=O)[C@@H](C)[C@H](O[C@H]2C[C@@](C)(OC)[C@@H](O)[C@H](C)O2)[C@@H](C)[C@H](O[C@H]2O[C@@H](C)C[C@@H](N(C)C)[C@@H]2O)[C@](C)(O)C[C@H](C)CN(Cc2ccc(-c3cn(CCCCC(=O)NO)nn3)cc2)[C@H](C)[C@H](O)[C@@]1(C)O [Compound 8d, (Azithromycin-(N10-(4-triazolylbenzyl)))-N-hydroxypentanamide] | devoid of antiproliferative activities | < 4.70 | < 4.70 | devoid of antiproliferative activities
CC[C@@H]1OC(=O)[C@H](C)[C@@H](O[C@@H]2C[C@](C)(OC)[C@H](O)[C@@H](C)O2)[C@@H](C)[C@@H](O[C@@H]2O[C@H](C)C[C@H](N(C)Cc3ccccc3-c3cn(CCCCCCC(=O)NO)nn3)[C@H]2O)[C@](C)(O)C[C@@H](C)CN(C)[C@H](C)[C@@H](O)[C@]1(C)O [Compound 15b, (Azithromycin-3′-(N-(2-triazolylbenzyl)))-N-hydroxyheptanamide] | devoid of antiproliferative activities | < 4.70 | < 4.70 | devoid of antiproliferative activities
CC[C@@H]1OC(=O)[C@H](C)[C@@H](O[C@@H]2C[C@](C)(OC)[C@H](O)[C@@H](C)O2)[C@@H](C)[C@@H](O[C@@H]2O[C@H](C)C[C@H](N(C)Cc3cccc(-c4cn(CCCCCCC(=O)NO)nn4)c3)[C@H]2O)[C@](C)(O)C[C@@H](C)CN(C)[C@H](C)[C@@H](O)[C@]1(C)O [Compound 16b, (Azithromycin-3′-(N-(3-triazolylbenzyl)))-N-hydroxyheptanamide] | potently inhibited | – | – | potently inhibited
